ChEMBL document CHEMBL1129497, “Guanine, pyrazolo[3,4-d]pyrimidine, and triazolo[4,5-d]pyrimidine (8-azaguanine) phosphonate acyclic derivatives as inhibitors of purine nucleoside phosphorylase” (J Med Chem, 1996)

target: T1, Purine nucleoside phosphorylase (Homo sapiens, UniProt P00491); test: In vitro inhibition of purine nucleoside phosphorylase isolated from human erythrocytes.
T1 sequence (P00491 whole entry): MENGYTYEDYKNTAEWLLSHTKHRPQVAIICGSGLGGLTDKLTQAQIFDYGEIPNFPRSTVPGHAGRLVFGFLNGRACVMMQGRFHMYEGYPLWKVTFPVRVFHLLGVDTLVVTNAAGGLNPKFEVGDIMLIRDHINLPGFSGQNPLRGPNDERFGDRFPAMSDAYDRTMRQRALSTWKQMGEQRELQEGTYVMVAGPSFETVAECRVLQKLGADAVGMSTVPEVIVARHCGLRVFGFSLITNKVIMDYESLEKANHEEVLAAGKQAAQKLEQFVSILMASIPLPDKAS

Ki	SMILES
190 nM	Nc1nc(O)c2nnn(COCCCCCCP(=O)(O)O)c2n1
96 nM	Nc1nc2c(nnn2COCCCCCP(=O)(O)O)c(=O)[nH]1
160 nM	Nc1nc2c(ncn2COCCCCCP(=O)(O)O)c(=O)[nH]1
220 nM	Nc1nc2c(ncn2COCCCCCCP(=O)(O)O)c(=O)[nH]1
580 nM	Nc1nc2c(cnn2CCCCCCCP(=O)(O)O)c(=O)[nH]1
1100 nM	Nc1nc2c(cnn2CCCCCCCCP(=O)(O)O)c(=O)[nH]1
630 nM	Nc1nc2c(cnn2COCCCCCCP(=O)(O)O)c(=O)[nH]1
1600 nM	Nc1nc2c(ncn2CCCCCCCCCCP(=O)(O)O)c(=O)[nH]1

The remaining lines, values behind:

SMILES	Ki
Nc1nc2c(cnn2COCCCCCP(=O)(O)O)c(=O)[nH]1	230 nM
Nc1nc(O)c2ncn(CCCCCCCCP(=O)(O)O)c2n1	390 nM
Nc1nc(O)c2nnn(CCCCCP(=O)(O)O)c2n1	65 nM
Nc1nc(O)c2ncn(COCCCCP(=O)(O)O)c2n1	56 nM
Nc1nc(O)c2nnn(CCCCP(=O)(O)O)c2n1	7300 nM
Nc1nc2c(ncn2COCCCCOP(=O)(O)O)c(=O)[nH]1	51 nM
Nc1nc2c(ncn2CCCCCCC(F)(F)P(=O)(O)O)c(=O)[nH]1	57 nM
Nc1nc(O)c2ncn(CCCCCCCP(=O)(O)O)c2n1	530 nM
Nc1nc2c(nnn2COCCCCP(=O)(O)O)c(=O)[nH]1	48 nM
Nc1nc(O)c2nnn(CCCCCCP(=O)(O)O)c2n1	360 nM
Nc1nc2c(cnn2CCCCCCC(F)(F)P(=O)(O)O)c(=O)[nH]1	49 nM
Nc1nc(O)c2nn(COCCCCCP(=O)(O)O)nc2n1	550 nM
